{"source": "patent US9834548B2", "about": "“Pyridazine compounds as JAK inhibitors” (Portola Pharmaceuticals, Inc., priority 2014, dated 2017)", "format_in_all_cases": "biochemical", "key": {"JAK1": {"target": "JAK1 (Homo sapiens (Human), UniProt P23458)", "sequence (P23458 875-1153)": "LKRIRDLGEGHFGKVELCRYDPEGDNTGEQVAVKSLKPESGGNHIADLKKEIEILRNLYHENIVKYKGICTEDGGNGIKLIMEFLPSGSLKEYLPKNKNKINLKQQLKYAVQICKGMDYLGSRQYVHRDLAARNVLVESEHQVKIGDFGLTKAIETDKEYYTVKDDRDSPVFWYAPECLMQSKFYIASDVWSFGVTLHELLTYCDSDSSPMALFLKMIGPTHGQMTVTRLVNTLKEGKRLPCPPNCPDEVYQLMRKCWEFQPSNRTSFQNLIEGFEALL", "assay": "Purified kinase assay (Z'-LYTE), JAK1", "conditions": "Table 1; read-out: JAK1 IC50", "experimental": "(§1) JAK and TYK2 tyrosine phosphorylation activity is measured using the Z′-LYTE™ Technology developed by Invitrogen Corporation (Carlsbad, Calif.). For JAK1, JAK2 and JAK3 the Z′-LYTE™ Kinase Assay Kit-Tyr6 Peptide (part number PV4122) was used. For TYK2 the Z′-LYTE™ Kinase Assay Kit-Tyr6 Peptide (part number PV3192) was used. The Z′-LYTE™ biochemical assay employs a fluorescence resonance energy transfer (FRET) coupled-enzyme format and is based on the differential sensitivity of phosphorylated and non-phosphorylated peptides to proteolytic cleavage. The assay uses a synthetic peptide substrate that is labeled with a donor fluorophore (coumarin) and an acceptor fluorophore (fluorescein) that make up a FRET pair. In the primary reaction (the Kinase Reaction), the kinase transfers the γ-phosphate of ATP to a single tyrosine residue on the substrate, while the presence of a kinase inhibitor in the primary reaction suppresses phosphorylation. In the secondary reaction (the Development Reaction), a site-specific protease (the Development Reagent) is added. The development buffer quenches the Kinase Reaction, while the protease recognizes and cleaves non-phosphorylated Z′-LYTE™ peptide substrate. Cleavage disrupts FRET between the donor and acceptor fluorophores on the non-phosphorylated substrate, while uncleaved, phosphorylated substrate maintains FRET.\n(§2) To test the ability of candidate molecules to inhibit JAK tyrosine phosphorylation activity, molecules are reconstituted in 100% DMSO and serially diluted 1:10 in polypropylene v-bottom microtiter plates. The candidate molecules are then diluted 1:25 into kinase buffer and 2.5 μl transferred into duplicate wells of a 384 well low volume black microtiter assay plate (Corning, USA). The final DMSO concentration in the assay is 1%. The kinase reaction contains 2.5 μl of a candidate molecule, 5 μl of catalytic domain recombinant Kinase enzyme+Tyr peptide substrate (Invitrogen, CA) and ATP (Invitrogen, CA). The kinase reaction is allowed to proceed for 1 hour at room temperature. The protease reaction is initiated by the addition of Development Reagent (Invitrogen, CA). After 1 hour incubation at room temperature the fluorescence is measured using a FlexStation plate reader (Molecular Devices, Sunnyvale, Calif.). The reader settings used are as follows: Fluorescence mode, endpoint, top read, excitation 400 nm, emission 445 nm and 520 nm, Auto Cutoff 435 nm and 515 nm, PMT sensitivity high, 6 reads per well Inhibition of JAK activity is calculated as the percent phosphorylation of substrate in the presence of inhibitor compared to the percent phosphorylation of substrate in the absence of inhibitor. IC50's were derived using Xlfit 4.3 (IDBS, UK), 4 parameter logistic model 205: Y=(A+((B−A)/(1+((C/x)^D))))."}, "JAK2": {"target": "JAK2 (Homo sapiens (Human), UniProt O60674)", "sequence (O60674 849-1124)": "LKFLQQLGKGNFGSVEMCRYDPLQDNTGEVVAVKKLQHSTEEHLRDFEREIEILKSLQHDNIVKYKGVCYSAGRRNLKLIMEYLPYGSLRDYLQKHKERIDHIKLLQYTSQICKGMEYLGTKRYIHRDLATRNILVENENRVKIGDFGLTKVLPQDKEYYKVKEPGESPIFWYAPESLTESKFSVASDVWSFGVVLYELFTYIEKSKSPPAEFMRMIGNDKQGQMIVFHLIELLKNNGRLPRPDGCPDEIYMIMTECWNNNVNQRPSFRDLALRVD", "assay": "Purified kinase assay (Z'-LYTE), JAK2", "conditions": "Table 1; read-out: JAK2 IC50", "experimental": "as §1, §2"}, "JAK3": {"target": "JAK3 (Homo sapiens (Human), UniProt P52333)", "sequence (P52333 822-1111)": "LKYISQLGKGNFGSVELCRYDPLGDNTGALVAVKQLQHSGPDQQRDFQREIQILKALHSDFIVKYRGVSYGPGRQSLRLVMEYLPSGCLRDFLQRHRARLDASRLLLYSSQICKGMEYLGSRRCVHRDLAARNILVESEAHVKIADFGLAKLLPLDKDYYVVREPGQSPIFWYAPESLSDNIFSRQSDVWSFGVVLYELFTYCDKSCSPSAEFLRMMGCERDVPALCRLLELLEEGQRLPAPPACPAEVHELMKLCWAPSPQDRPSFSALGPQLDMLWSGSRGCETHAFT", "assay": "Purified kinase assay (Z'-LYTE), JAK3", "conditions": "Table 1; read-out: JAK3 IC50", "experimental": "as §1, §2"}}, "note": "pIC50: −log10 of the molar value.", "data": [{"smiles": "CC(=O)N1CCN(c2ccc(Nc3cc(NCc4cccc(Cl)c4)c(C(N)=O)nn3)cc2)CC1", "note": "[Compound 46]", "values": [{"measurement": "pIC50", "setting": "JAK1", "result": "6.00 to 7.00"}, {"measurement": "pIC50", "setting": "JAK2", "result": "6.00 to 7.00"}, {"measurement": "pIC50", "setting": "JAK3", "result": "7.00 to 8.00"}]}, {"smiles": "CS(=O)(=O)CCc1ccc(Nc2cc(NCc3cccc(F)c3)c(C(N)=O)nn2)cc1", "note": "[Compound 108]", "values": [{"measurement": "pIC50", "setting": "JAK1", "result": "< 6.00"}, {"measurement": "pIC50", "setting": "JAK2", "result": "6.00 to 7.00"}, {"measurement": "pIC50", "setting": "JAK3", "result": "7.00 to 8.00"}]}, {"smiles": "CC(=O)N1CCC(Cn2cc(Nc3cc(NCc4cccc(F)c4F)c(C(N)=O)nn3)cn2)CC1", "note": "[Compound 126]", "values": [{"measurement": "pIC50", "setting": "JAK1", "result": "< 6.00"}, {"measurement": "pIC50", "setting": "JAK2", "result": "6.00 to 7.00"}, {"measurement": "pIC50", "setting": "JAK3", "result": "8.00 to 9.00"}]}, {"smiles": "C[S+]([O-])Cc1ccc(Nc2cc(NCc3cccc(F)c3)c(C(N)=O)nn2)cc1", "note": "(stereo not drawn) [Compound 105]", "values": [{"measurement": "pIC50", "setting": "JAK1", "result": "6.00 to 7.00"}, {"measurement": "pIC50", "setting": "JAK2", "result": "6.00 to 7.00"}, {"measurement": "pIC50", "setting": "JAK3", "result": "7.00 to 8.00"}]}, {"smiles": "CCC(=O)N1CCC(c2ccc(Nc3cc(NCc4cc(F)cc(F)c4)c(C(N)=O)nn3)cc2)CC1", "note": "[Compound 27]", "values": [{"measurement": "pIC50", "setting": "JAK1", "result": "< 6.00"}, {"measurement": "pIC50", "setting": "JAK2", "result": "< 6.00"}, {"measurement": "pIC50", "setting": "JAK3", "result": "7.00 to 8.00"}]}, {"smiles": "CCC(=O)N1CCN(c2ccc(Nc3cc(NCc4cccc5[nH]ccc45)c(C(N)=O)nn3)cc2)CC1", "note": "[Compound 110]", "values": [{"measurement": "pIC50", "setting": "JAK1", "result": "7.00 to 8.00"}, {"measurement": "pIC50", "setting": "JAK2", "result": "7.00 to 8.00"}, {"measurement": "pIC50", "setting": "JAK3", "result": "8.00 to 9.00"}]}, {"smiles": "NC(=O)c1nnc(Nc2cc(F)c(N3CCOCC3)c(F)c2)cc1NCc1cccc(F)c1F", "note": "[Compound 41]", "values": [{"measurement": "pIC50", "setting": "JAK1", "result": "< 6.00"}, {"measurement": "pIC50", "setting": "JAK2", "result": "< 6.00"}, {"measurement": "pIC50", "setting": "JAK3", "result": "< 6.00"}]}, {"smiles": "CCn1cc(Nc2cc(NCc3cccc4ccsc34)c(C(N)=O)nn2)cn1", "note": "[Compound 122]", "values": [{"measurement": "pIC50", "setting": "JAK1", "result": "6.00 to 7.00"}, {"measurement": "pIC50", "setting": "JAK2", "result": "7.00 to 8.00"}, {"measurement": "pIC50", "setting": "JAK3", "result": "8.00 to 9.00"}]}, {"smiles": "CCC(=O)N1CCC(Cn2cc(Nc3cc(NCc4cccc(F)c4F)c(C(N)=O)nn3)cn2)CC1", "note": "[Compound 129]", "values": [{"measurement": "pIC50", "setting": "JAK1", "result": "6.00 to 7.00"}, {"measurement": "pIC50", "setting": "JAK2", "result": "6.00 to 7.00"}, {"measurement": "pIC50", "setting": "JAK3", "result": "8.00 to 9.00"}]}, {"smiles": "CCn1cc(Nc2cc(NCc3cccc(F)c3)c(C(N)=O)nn2)cn1", "note": "[Compound 123]", "values": [{"measurement": "pIC50", "setting": "JAK1", "result": "< 6.00"}, {"measurement": "pIC50", "setting": "JAK2", "result": "6.00 to 7.00"}, {"measurement": "pIC50", "setting": "JAK3", "result": "7.00 to 8.00"}]}, {"smiles": "CC(=O)N1CCN(c2ccc(Nc3cc(NCc4cccc(C#N)c4)c(C(N)=O)nn3)cc2)CC1", "note": "[Compound 72]", "values": [{"measurement": "pIC50", "setting": "JAK1", "result": "< 6.00"}, {"measurement": "pIC50", "setting": "JAK2", "result": "6.00 to 7.00"}, {"measurement": "pIC50", "setting": "JAK3", "result": "7.00 to 8.00"}]}, {"smiles": "CC(=O)Nc1cccc(Nc2cc(NC3CCC3)c(C(N)=O)nn2)c1", "note": "[Compound 7, 6-((3-acetamidophenyl)amino)-4-(cyclobutylamino)pyridazine-3-carboxamide]", "values": [{"measurement": "pIC50", "setting": "JAK1", "result": "< 6.00"}, {"measurement": "pIC50", "setting": "JAK2", "result": "6.00 to 7.00"}, {"measurement": "pIC50", "setting": "JAK3", "result": "6.00 to 7.00"}]}, {"smiles": "NC(=O)c1nnc(Nc2cnn(CC3CCOCC3)c2)cc1NCc1cccc(F)c1F", "note": "[Compound 124]", "values": [{"measurement": "pIC50", "setting": "JAK1", "result": "< 6.00"}, {"measurement": "pIC50", "setting": "JAK2", "result": "6.00 to 7.00"}, {"measurement": "pIC50", "setting": "JAK3", "result": "8.00 to 9.00"}]}, {"smiles": "CC(c1ccc(Nc2cc(NCc3cccc(F)c3)c(C(N)=O)nn2)cc1)S(C)(=O)=O", "note": "(stereo not drawn) [Compound 96]", "values": [{"measurement": "pIC50", "setting": "JAK1", "result": "6.00 to 7.00"}, {"measurement": "pIC50", "setting": "JAK2", "result": "6.00 to 7.00"}, {"measurement": "pIC50", "setting": "JAK3", "result": "7.00 to 8.00"}]}, {"smiles": "NC(=O)c1nnc(Nc2ccc(C(=O)N3CCCC3)cc2)cc1NCc1cccc(F)c1", "note": "[Compound 52]", "values": [{"measurement": "pIC50", "setting": "JAK1", "result": "< 6.00"}, {"measurement": "pIC50", "setting": "JAK2", "result": "6.00 to 7.00"}, {"measurement": "pIC50", "setting": "JAK3", "result": "7.00 to 8.00"}]}, {"smiles": "CS(=O)(=O)Cc1ccc(Nc2cc(NCc3c(F)cccc3F)c(C(N)=O)nn2)cc1", "note": "[Compound 87]", "values": [{"measurement": "pIC50", "setting": "JAK1", "result": "6.00 to 7.00"}, {"measurement": "pIC50", "setting": "JAK2", "result": "6.00 to 7.00"}, {"measurement": "pIC50", "setting": "JAK3", "result": "8.00 to 9.00"}]}, {"smiles": "NC(=O)c1nnc(Nc2cnccn2)cc1NCc1cccc(-n2ccnc2)c1", "note": "[Compound 111]", "values": [{"measurement": "pIC50", "setting": "JAK1", "result": "< 6.00"}, {"measurement": "pIC50", "setting": "JAK2", "result": "< 6.00"}, {"measurement": "pIC50", "setting": "JAK3", "result": "6.00 to 7.00"}]}, {"smiles": "NC(=O)c1nnc(Nc2ccc(N3CCNCC3)nc2)cc1NCc1cccc(F)c1", "note": "[Compound 50]", "values": [{"measurement": "pIC50", "setting": "JAK1", "result": "< 6.00"}, {"measurement": "pIC50", "setting": "JAK2", "result": "< 6.00"}, {"measurement": "pIC50", "setting": "JAK3", "result": "6.00 to 7.00"}]}, {"smiles": "CC(C)CNc1cc(Nc2ccc(N3CCNCC3)cc2)nnc1C(N)=O", "note": "[Compound 15]", "values": [{"measurement": "pIC50", "setting": "JAK1", "result": "< 6.00"}, {"measurement": "pIC50", "setting": "JAK2", "result": "< 6.00"}, {"measurement": "pIC50", "setting": "JAK3", "result": "6.00 to 7.00"}]}, {"smiles": "Cc1cc(Nc2cc(NCc3cccc(F)c3F)c(C(N)=O)nn2)ccc1N1CCOCC1", "note": "[Compound 40]", "values": [{"measurement": "pIC50", "setting": "JAK1", "result": "< 6.00"}, {"measurement": "pIC50", "setting": "JAK2", "result": "< 6.00"}, {"measurement": "pIC50", "setting": "JAK3", "result": "7.00 to 8.00"}]}, {"smiles": "CC(=O)N1CCN(c2ccc(Nc3cc(NCc4ccc(Cl)s4)c(C(N)=O)nn3)cc2)CC1", "note": "[Compound 76]", "values": [{"measurement": "pIC50", "setting": "JAK1", "result": "< 6.00"}, {"measurement": "pIC50", "setting": "JAK2", "result": "< 6.00"}, {"measurement": "pIC50", "setting": "JAK3", "result": "7.00 to 8.00"}]}, {"smiles": "COc1cc(Nc2cc(NCc3cccc(F)c3)c(C(N)=O)nn2)ccc1C(=O)N1CCCC1", "note": "[Compound 53]", "values": [{"measurement": "pIC50", "setting": "JAK1", "result": "< 6.00"}, {"measurement": "pIC50", "setting": "JAK2", "result": "6.00 to 7.00"}, {"measurement": "pIC50", "setting": "JAK3", "result": "7.00 to 8.00"}]}]}
